Results: US12492210B2, “Tricyclic compounds and their use” (HUTCHISON MEDIPHARMA LIMITED, priority 2019, dated 2025)

Assays:
[1] = system: p-RSK (Thr359) in colo205 cells; test: p-RSK (Thr359) Acumen Assay in Colo205; type: cell-based; settings: Homo sapiens, COLO 205, 1 hour compound incubation, read-out: Example 19 IC50
Protocol: Example 19: p-RSK (Thr359) Acumen Assay in Colo205
• Phospho-p90RSK (Thr359) (D1E9) Rabbit mAb: cell signal, #8753 • Alexa Fluor® 488 donkey anti-rabbit IgG: invitrogen, #A-21206 • Propidium Iodide: Sigma, #p4170 • 4% Paraformaldehyde: SCRC, #DF021 • 10% Triton X-100: PIERCE, #28314 • 96-well plate (black with clear bottom): BD, #354640 • Acumen® eX3 (A Multilaser Microplate Cytometer For Enhanced High Content Screening): TTP LabTech 3. Acumen Assay Protocol • Seed 4000 cells in 100 μl 10% FBS/well into 96-well plate, incubate at 37° C., 5% CO2, overnight. • Dilute the compound to 3, 1, 0.33, 0.11, 0.037, 0.012, 0.004, 0.001 μM, keeping the DMSO concentration at 5%. Add 10 μl of diluted compound per well and incubate at 37° C., 5% CO2 for 1 hour. • Add 100 μl of 4% pre-warmed Paraformaldehyde (2% final), and incubate for 45 min at room temperature. • Remove paraformaldehyde solutions. Add 100 μl of ice-cold 0.1% Triton to fixed cells at room temperature for 30 min. • Wash twice with 150 μl PBS and incubate with 100 μl blocking buffer (1% BSA, in PBS) for 2˜3 hours at room temperature, seal the plate. • Wash once with PBS and incubate with 35 μl p-RSK (Thr359) (1:1000 dilution) overnight at 4° C. Seal the plate. • Wash twice with PBS and incubate for 1.5 hours at room temperature with 35 μl of Alexa Fluor® 488 donkey anti-rabbit IgG at a 1:1,000 dilution in antibody dilution buffer (0.1% BSA, in PBS). Cover plate in foil to keep out of light. • Wash twice with 150 μl PBS. Add 35 μl of 1.5 μM Propidium Iodide stock to each well to determine cell number, seal the plate. • Incubate at room temperature for 30 min. Load the plate into the Acumen Explorer and scan with the appropriate instrument settings. 4. Data Analysis
[formula] Note: • Percentagecompound well represents the positive percentage of cells treated by compound. • Percentagemin well represents the positive percentage of cells treated with 3 uM GDC0994. • Percentagemax well represents the positive percentage of cells without compounds treatment. 5. IC50 Value: determine IC50 with add-in software for Microsoft Excel, XLfit™ (version 2.0) from ID Business Solutions (Guildford, UK)

MAPK1(ERK2) enzyme = target: T1, MAPK1(ERK2) enzyme (Homo sapiens, UniProt P28482); test: Z-Lyte Kinase Assay of ERK2; type: biochemical; settings: read-out: Example 18 IC50
T1 construct: purchased Invitrogen PV3313
T1 sequence (P28482 whole entry): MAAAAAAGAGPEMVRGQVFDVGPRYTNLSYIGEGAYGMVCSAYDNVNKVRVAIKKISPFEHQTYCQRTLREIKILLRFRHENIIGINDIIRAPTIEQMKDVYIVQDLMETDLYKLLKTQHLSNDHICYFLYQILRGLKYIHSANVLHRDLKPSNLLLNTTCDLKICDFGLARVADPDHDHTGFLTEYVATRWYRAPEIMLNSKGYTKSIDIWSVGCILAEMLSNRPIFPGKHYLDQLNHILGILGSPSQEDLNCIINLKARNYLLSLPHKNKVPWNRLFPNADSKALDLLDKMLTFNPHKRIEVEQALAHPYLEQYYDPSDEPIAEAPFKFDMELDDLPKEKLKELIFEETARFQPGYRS
Protocol: Example 18: Z-Lyte Kinase Assay of ERK2
1. Materials and Reagents:
2. Reaction Steps: Plate Map
3. Solution Preparation • 1) 1.33× Kinase Buffer: Dilute 5× Kinase Buffer to 1.33× with ddH2O • 2) 4× Test Compounds: Serially dilute the test compounds to 4 folds of the concentrations desired, keeping the DMSO concentration at 8%. The final concentrations are 1, 0.33, 0.11, 0.037, 0.012, 0.004, 0.0014, 0.00046 μM, and the final concentration of DMSO is 2%. • 3) Kinase/Peptide Mixture (P/K solution): Prepare Kinase/Peptide Mixture by diluting the kinase to 0.6 μg/ml and the Z-LYTE™ Ser/Thr3 peptide to 4 μM in 1.33× Kinase Buffer. Mix gently by pipetting. • 4) Phospho-peptide Solution (PP solution): Add 0.4 μl of Z-LYTE™ Ser/Thr3 Phospho-peptide to 99.6 μl of 1.33× Kinase Buffer. • 5) ATP Solution: Prepare ATP Solution by diluting the 10 mM of ATP in 1.33× Kinase Buffer to 100 μM. • 6) Development Solution: Dilute Development Reagent A with Development Buffer as 1:1024. 4. Reaction • 1) Kinase reaction (10 μl of Volume) • a. In a 384-well plate, add 2.5 μl of 4× test Cpds to each well except C1, C2, C3 wells Add 2.5 μl of 8% DMSO to C1, C2, C3 wells • b. Put the plate on ice • c. Add 5 μl of P/K mixture to each test Cpd wells and C1, C2 wells • d. Add 5 μl of PP Solution to C3 well • e. Add 2.5 μl of 1.33× kinase buffer to C1 and C3 wells • f. Add 2.5 μl of 4×ATP Solution to each test Cpd wells and C2 well, respectively. Shake the plate for 30 Sec and centrifuge (1500 rpm, 1 min) • g. Seal the plate to protect from the light and incubate the plate for 1 hour at RT (25-30° C.) • 2) Development reaction • a. Add 5 μl of the Development solution to all wells • b. Shake the plate for 30 sec and centrifuge (1500 rpm, 1 min) • c. Seal the plate to protect from the light and incubate the plate for 1 hour at RT (25-30° C.) • 3) Stop and read • a. Add 5 μl of the Stop reagent to all wells • b. Shake the plate for 30 sec and centrifuge (1500 rpm, 1 min) • c. Measure the value of coumarin (Ex400 nm, Em445 nm) and fluorescein (Ex400 nm, Em520 nm), respectively. 5. Data Analysis Emission Ratio(ER)=Coumarin Emission (445 nm)/Fluorescein Emission (520 nm) % Phosphorylation=1−[ER×C3520nm−C3445nm]/[(C1445nm−C3445nm)+ER×(C3520nm−C1520nm)] Inhibition rate (IR)=1−% Photest Cpd% PhoC2 6. IC50 Value: determine IC50 with add-in software for Microsoft Excel, XLfit™ (version 2.0) from ID Business Solutions (Guildford, UK)

| IC50 [1] | IC50 (MAPK1(ERK2) enzyme) | Structure (SMILES) |
| --- | --- | --- |
| ≤ 100 nM | ≤ 5 nM | Cn1nccc1Nc1cc(-c2cc3n(c2)CCCn2c(COC(F)(F)F)nnc2-3)c(Cl)cn1 [Compound 11] |
| ≤ 100 nM | ≤ 5 nM | Cc1cnc(Nc2ccnn2C)cc1-c1cc2n(c1)[C@@H]1CC[C@@H](C1)n1c-2nnc1C(F)(F)C(F)F [Compound 65] |
| > 100 nM | ≤ 5 nM | Cc1cc(C(F)(F)c2nnc3n2[C@@H](CF)Cn2cc(-c4cc(Nc5ccnn5C)ncc4C)cc2-3)on1 [Compound 99] |
| ≤ 100 nM | ≤ 5 nM | COC[C@H]1Cn2cc(-c3nc(Nc4ccnn4C)ncc3C)nc2-c2nnc(C(F)(F)c3ccccc3Cl)n21 [Compound 220, (R)-4-(3-((2-chlorophenyl)difluoromethyl)-5-(methoxymethyl)-5,6-dihydroimidazo[1,2-a][1,2,4]triazolo[3,4-c]pyrazin-9-yl)-5-methyl-N-(1-methyl-1H-pyrazol-5-yl)pyrimidin-2-amine] |
| ≤ 100 nM | > 10 nM | Cn1nccc1Nc1cc(-c2cc3n(c2)CC(F)(F)Cn2c-3nnc2C2(C(F)(F)F)CCC2)c(Cl)cn1 [Compound 171] |
| ≤ 100 nM | ≤ 5 nM | Cc1cnc(Nc2ccnn2C)nc1-c1cc2n(c1)C[C@H](C)n1c-2nnc1C(F)(F)c1ccccc1F [Compound 88] |
| ≤ 100 nM | ≤ 5 nM | Cn1nccc1Nc1cc(-c2cc3n(c2)CCn2c-3nnc2C2(C(F)(F)F)CCC2)c(Cl)cn1 [Compound 20] |
| ≤ 100 nM | 5 to 10 nM | Cn1nccc1Nc1cc(-c2cc3n(c2)CC2(CC2)n2c-3nnc2C2(C(F)(F)F)CCC2)c(Cl)cn1 [Compound 259] |
| > 100 nM | ≤ 5 nM | Cn1nccc1Nc1cc(-c2cc3n(c2)CCCn2c-3nnc2C(C)(C)C(F)(F)F)c(Cl)cn1 [Compound 22] |
| ≤ 100 nM | ≤ 5 nM | Cn1nccc1Nc1ncc(F)c(-c2cc3n(c2)C[C@H](CF)n2c-3nnc2C(F)(F)c2ccccc2)n1 [Compound 98] |
| ≤ 100 nM | ≤ 5 nM | Cn1nccc1Nc1cc(-c2cc3n(c2)CCn2c-3nnc2C2(C(F)F)CCC2)c(Cl)cn1 [Compound 46] |
| ≤ 100 nM | ≤ 5 nM | Cc1cnc(Nc2ccnn2C)nc1-c1cn2c(n1)-c1nnc(C(F)(F)c3ccccc3Cl)n1[C@@H](CF)C2 [Compound 225] |
| ≤ 100 nM | ≤ 5 nM | Cn1nccc1Nc1cc(-c2cc3n(c2)C[C@H](CF)n2c-3nnc2C(F)(F)n2cc(Cl)cn2)c(F)cn1 [Compound 164] |
| ≤ 100 nM | > 10 nM | Cc1cnc(Nc2ccnn2C)cc1-c1cc2n(c1)C[C@H](CF)n1c-2nnc1C(F)(F)c1cccc(F)c1F [Compound 180] |
| > 100 nM | ≤ 5 nM | Cn1nccc1Nc1cc(-c2cc3n(c2)CCCn2c(COCC(F)(F)F)nnc2-3)c(Cl)cn1 [Compound 25] |
| ≤ 100 nM | ≤ 5 nM | Cc1c(-c2ccnc(Nc3ccnn3C)n2)cn2c1-c1nnc(COc3ccccc3F)n1CCC2 [Compound 16] |
| ≤ 100 nM | ≤ 5 nM | C[C@@H](CO)Nc1ncc(Cl)c(-c2cc3n(c2)CCCn2c-3nnc2C2(C(F)(F)F)CCC2)n1 [Compound 276] |

| IC50 [1] | IC50 (MAPK1(ERK2) enzyme) | Structure (SMILES) |
| --- | --- | --- |
| ≤ 100 nM | ≤ 5 nM | Cn1nccc1Nc1cc(-c2cc3n(c2)CC(C)(C)n2c(CCC(F)(F)F)nnc2-3)c(Cl)cn1 [Compound 247] |
| > 100 nM | ≤ 5 nM | CCc1cnc(Nc2ccnn2C)cc1-c1cc2n(c1)C[C@H](OC)Cn1c-2nnc1C1(C(F)(F)F)CCC1 [Compound 147] |
| ≤ 100 nM | ≤ 5 nM | Cc1cnc(Nc2ccnn2C)cc1-c1cc2n(c1)C[C@H](CF)n1c-2nnc1C(F)(F)n1nccc1Cl [Compound 151] |
| ≤ 100 nM | ≤ 5 nM | Cn1nccc1Nc1nccc(-c2cc3n(c2)CCn2c(COc4ccccc4F)nnc2-3)n1 [Compound 3] |
| > 100 nM | 5 to 10 nM | Cn1nccc1Nc1cc(-c2cc3n(c2)C[C@H](CF)n2c-3nnc2C(F)(F)c2cccc(F)c2)c(Cl)cn1 [Compound 191] |
| ≤ 100 nM | ≤ 5 nM | Cn1nccc1Nc1cc(-c2cc3n(c2)CC(F)(F)Cn2c-3nnc2C2(C(F)F)CCC2)c(Cl)cn1 [Compound 266] |
| ≤ 100 nM | ≤ 5 nM | Cc1cnc(Nc2ccnn2C)cc1-c1cc2n(c1)C[C@H](CF)n1c-2nnc1C(F)(F)c1nonc1C [Compound 101] |
| ≤ 100 nM | ≤ 5 nM | Cc1cnc(Nc2ccnn2C(F)F)nc1-c1cn2c(n1)-c1nnc(C(F)(F)c3ccccc3Cl)n1[C@@H](C)C2 [Compound 228] |
| > 100 nM | 5 to 10 nM | Cn1nccc1Nc1cc(-c2cc3n(c2)CCCn2c-3nnc2C(O)c2ccccc2)c(Cl)cn1 (centres unmarked) [Compound 18] |
| ≤ 100 nM | 5 to 10 nM | Cn1nccc1Nc1cc(-c2cc3n(c2)CC2(CCC2)Cn2c-3nnc2C2(C(F)(F)F)CCC2)c(Cl)cn1 [Compound 55, 5-chloro-N-(1-methyl-1H-pyrazol-5-yl)-4-(3′-(1-(trifluoromethyl)cyclobutyl)-5′H,7′H-spiro[cyclobutane-1,6′-pyrrolo[1,2-a][1,2,4]triazolo[3,4-c][1,4]diazepin]-10′-yl)pyridin-2-amine] |
| ≤ 100 nM | > 10 nM | Cc1cnc(Nc2ccnn2C(F)F)nc1-c1cc2n(c1)C[C@H](C)n1c-2nnc1C(F)(F)c1ccccc1F [Compound 187] |
| > 100 nM | ≤ 5 nM | Cn1nccc1Nc1cc(-c2cc3n(c2)CC(F)(F)Cn2c(COC(F)(F)F)nnc2-3)c(Cl)cn1 [Compound 107] |
| ≤ 100 nM | ≤ 5 nM | Cc1cnc(Nc2ccnn2C)nc1-c1cc2c3nnc(Cc4cccc(F)c4)n3ccn2c1 [Compound 283] |
| > 100 nM | ≤ 5 nM | Cc1cnc(Nc2ccnn2C)cc1-c1cc2n(c1)C[C@H](F)Cn1c-2nnc1C(F)(F)C(F)(F)F [Compound 75] |
| > 100 nM | > 10 nM | COc1cc(Nc2ncc(C)c(-c3cc4n(c3)C[C@H](C)n3c-4nnc3C(F)(F)c3ccccc3F)n2)c(C)cn1 [Compound 294] |
| > 100 nM | ≤ 5 nM | C[C@H]1Cn2cc(-c3cc(Nc4ccnn4C)ncc3F)cc2-c2nnc(C(F)(F)n3cc(Cl)cn3)n21 [Compound 109] |
| ≤ 100 nM | 5 to 10 nM | Cc1cnc(Nc2ccnn2C)cc1-c1cc2n(c1)C[C@H](CF)n1c-2nnc1C(F)(F)c1cccc(F)c1 [Compound 127] |
